Data from US20110098296A1, “Thiazole And Oxazole Kinase Inhibitors” (priority 2007, published 2011).
pIC50: −log10 of the molar value.

Tests used:
EGFR = molecular target: T1, EGFR (Homo sapiens, UniProt P00533); assay: EGFR substrate phosphorylation assay (HTRF); assay type: biochemical; details: Method (A): Enzyme Mix incubated with compound at 20° C. for 1 hr, reaction started by adding Substrate Mix
T1 construct: made in house; host or cells: baculovirus expression system
Summary of the method: (§1)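 Baculovirus-expressed kinase (0.8 nM EGFR or 10 nM ErbB2 in enzyme mix) with Peptide C 0.8 μM and ATP 20 μM (substrate-mix levels), MOPS pH 7.5, MnCl2; 90 min, 20 °C, HTRF anti-phosphotyrosine. Method A adds 1 h enzyme–compound preincubation; B none. pIC50, final compound 0.00027–47.6 μM.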

HT-29 tumor cells = assay: Method C: Cell Growth Inhibition Assay (CellTiter-Glo), HT-29; assay type: cell-based; details: Homo sapiens, HT-29, 72 h, 3 days, 4-parameter fit
Experimental: (§2) Human breast tumor cells (BT474) were cultured in RPMI (Mediatech 50-011-PB), containing 10% FBS (JRH Biosciences 12176) and 1% penicillin-streptomycin (Invitrogen 15140). Human head and neck tumor cells (HN5) were cultured in high glucose DMEM (Mediatech 50-013-PB) containing 10% FBS and 1% penicillin-streptomycin. Human colon tumor cells (Colo205) were cultured in RPMI (Mediatech 50-020-PB) containing 10% FBS and 1% penicillin-streptomycin. Human melanoma cancer cells (SK-MEL-28) were cultured in EMEM with nonessential amino acids (Mediatech 50-011-PB) containing 10% FBS, 1% sodium pyruvate (JT Baker 3354-04), and 1% penicillin-streptomycin. Human melanoma cancer cells (A375P F11s) were cultured in RPMI (Mediatech 50-020-PB) containing 10% FBS, 1% sodium pyruvate, and 1% penicillin-streptomycin. Human colon cancer cells (HT-29) were cultured in high glucose DMEM (Mediatech 50-013-PB) containing 10% FBS and 1% penicillin-streptomycin. Human melanoma cancer cells (SK-MEL-3) were cultured in McCoy's 5A (50-025-PB) containing 15% FBS, and 1% penicillin-streptomycin. All cell lines were maintained at 37° C. in a humidified 5% CO2, 95% air incubator. Cells were harvested using trypsin/EDTA (Invitrogen 25200), counted using an haemocytometer, and plated. For 96-well assays (using white full-area NUNC plates cat. #136102), cells were plated in 105 μL at the following densities (cells/well): HN5, 500; Colo205, 500; SK-MEL-28, 500; A375P-F11s, 500; HT-29, 500; SK-MEL-3, 500; and BT474, 3000. For 384-well assays (white full-area NUNC plates, cat. #781080), cells were plated in 48 μL at the following densities (cells/well): HN5, 500; Colo205, 500; SK-MEL-28, 500; A375P-F11s, 500; HT29, 500; SK-MEL-3, 500; and BT474, 2000.
(§3) The next day, compounds were diluted as follow: For 96-well assays, 13.5 μL of compound in DMSO were diluted using nine (9) serial 1:3 dilutions of 4.5 μL in 9 μL of DMSO. Medium (270 μl/well of RPMI with 10% FBS and 1% penicillin-streptomycin) was added to the plates. Aliquots (7 μl) were added to cells in the final assay giving a final DMSO concentration of 0.2%. For 384-well assays, 15 μL of compound in DMSO were diluted using nine (9) serial 1:3 dilutions of 5 μL in 10 μL of DMSO, followed by a further dilution of 5 μL of compound with 95 μL of medium, of which 2 μL were added to cells in the final assay giving a final DMSO concentration of 0.2%. Cells were incubated at 37° C., 5% CO2 for 3 days.
(§4) Total ATP was measured (as a surrogate estimate of cell number) using CellTiter-Glo® reagent (Promega G7571). Briefly, plates were removed from the incubator and allowed to equilibrate to room temperature for 30 minutes. CellTiter-Glo® (25 μL or 55 μL for 384-well or 96-well assays, respectively) reagent was added to each well and plates were shaken on an orbital plate shaker for 2 mins. Plates were incubated without shaking for a further 30 mins and read on an LJL Analyst GT reader in luminometer mode with an integration time of 0.5 seconds per well. Percent inhibition of cell growth was calculated relative to DMSO vehicle-treated control wells. Concentration of compound required to give 50% inhibition of vehicle-treated control cell growth (IC50) was interpolated using a 4-parameter fit for determining IC50 using the following equation: Y=A+((B−A)/(1+((C/X)̂D))) where X=IC50.

SK-MEL-3 tumor cells = assay: Method C: Cell Growth Inhibition Assay (CellTiter-Glo), SK-MEL-3; assay type: cell-based; details: Homo sapiens, SK-MEL3, 72 h, 3 days, 4-parameter fit
Experimental: as §2, §3, §4

Colo205 tumor cells = assay: Method C: Cell Growth Inhibition Assay (CellTiter-Glo), Colo205; assay type: cell-based; details: Homo sapiens, COLO 205, 72 h, 3 days, 4-parameter fit
Summary of the method: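 Cells were seeded at 500 per well and dosed the next day with nine serial 1:3 compound dilutions (0.2% DMSO final), then grown 3 days at 37° C, 5% CO2. ATP was measured by CellTiter-Glo luminescence, and IC50 was interpolated by 4-parameter fit of percent inhibition versus DMSO controls.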

A375P F11s tumor cells = assay: Method C: Cell Growth Inhibition Assay (CellTiter-Glo), A375P F11s; assay type: cell-based; details: Homo sapiens, 72 h, 3 days, 4-parameter fit
Experimental: as §2, §3, §4

SK-MEL-28 tumor cells = assay: Method C: Cell Growth Inhibition Assay (CellTiter-Glo), SK-MEL-28; assay type: cell-based; details: Homo sapiens, SK-MEL-28, 72 h, 3 days, 4-parameter fit
Summary of the method: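 500 cells/well; next-day compound, 1:3 serial dilutions, 0.2% DMSO final; 3 d, 37° C, 5% CO2. Readout: CellTiter-Glo luminescence (total ATP as cell-number surrogate). IC50 from 4-parameter fit of % growth inhibition vs vehicle.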

BT474 tumor cells = assay: Method C: Cell Growth Inhibition Assay (CellTiter-Glo), BT474; assay type: cell-based; details: Homo sapiens, BT-474, 72 h, 3 days, 4-parameter fit
ErbB2 = molecular target: T2, ErbB2 (Homo sapiens, UniProt P04626); assay: ErbB-2 substrate phosphorylation assay (HTRF); assay type: biochemical; details: Method (A): Enzyme Mix incubated with compound at 20° C. for 1 hr, reaction started by adding Substrate Mix
T2 construct: made in house; host or cells: baculovirus expression system
Summary of the method: as §1

HN5 tumor cells = assay: Method C: Cell Growth Inhibition Assay (CellTiter-Glo), HN5; assay type: cell-based; details: Homo sapiens, 72 h, 3 days, 4-parameter fit
Experimental: as §2, §3, §4

T2 sequence (P04626 23-1255): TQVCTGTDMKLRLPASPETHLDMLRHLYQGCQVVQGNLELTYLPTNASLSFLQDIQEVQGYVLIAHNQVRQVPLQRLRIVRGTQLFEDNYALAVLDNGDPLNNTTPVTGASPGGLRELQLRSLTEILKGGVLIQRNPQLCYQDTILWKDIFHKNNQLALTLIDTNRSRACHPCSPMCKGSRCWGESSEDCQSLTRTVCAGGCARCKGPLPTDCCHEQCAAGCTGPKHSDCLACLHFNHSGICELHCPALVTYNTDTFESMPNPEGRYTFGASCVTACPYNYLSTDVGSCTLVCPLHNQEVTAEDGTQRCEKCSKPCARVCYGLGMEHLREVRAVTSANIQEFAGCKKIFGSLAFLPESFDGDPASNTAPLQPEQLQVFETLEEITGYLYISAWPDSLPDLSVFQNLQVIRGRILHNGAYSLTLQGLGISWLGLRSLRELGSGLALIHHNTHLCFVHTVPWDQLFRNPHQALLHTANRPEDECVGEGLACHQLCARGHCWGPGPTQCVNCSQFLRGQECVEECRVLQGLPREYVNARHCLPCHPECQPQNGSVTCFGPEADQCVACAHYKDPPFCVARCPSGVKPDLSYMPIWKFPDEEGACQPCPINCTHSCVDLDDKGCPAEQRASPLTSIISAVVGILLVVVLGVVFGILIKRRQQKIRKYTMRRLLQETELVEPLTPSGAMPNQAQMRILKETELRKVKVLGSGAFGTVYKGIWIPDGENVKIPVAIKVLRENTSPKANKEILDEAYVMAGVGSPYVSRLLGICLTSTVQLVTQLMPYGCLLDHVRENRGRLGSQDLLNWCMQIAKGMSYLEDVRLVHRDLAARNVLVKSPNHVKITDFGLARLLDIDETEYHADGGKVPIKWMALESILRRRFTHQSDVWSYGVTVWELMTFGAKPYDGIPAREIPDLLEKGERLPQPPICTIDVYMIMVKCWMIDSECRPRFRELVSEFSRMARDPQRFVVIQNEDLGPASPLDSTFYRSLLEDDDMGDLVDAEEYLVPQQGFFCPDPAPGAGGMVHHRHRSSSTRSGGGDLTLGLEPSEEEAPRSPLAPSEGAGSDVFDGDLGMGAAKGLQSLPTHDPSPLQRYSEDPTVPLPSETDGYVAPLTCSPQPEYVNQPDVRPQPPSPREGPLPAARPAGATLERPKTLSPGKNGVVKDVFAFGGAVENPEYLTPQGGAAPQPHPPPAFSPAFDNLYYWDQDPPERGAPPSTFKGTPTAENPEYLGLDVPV
T1 sequence (P00533 25-1210): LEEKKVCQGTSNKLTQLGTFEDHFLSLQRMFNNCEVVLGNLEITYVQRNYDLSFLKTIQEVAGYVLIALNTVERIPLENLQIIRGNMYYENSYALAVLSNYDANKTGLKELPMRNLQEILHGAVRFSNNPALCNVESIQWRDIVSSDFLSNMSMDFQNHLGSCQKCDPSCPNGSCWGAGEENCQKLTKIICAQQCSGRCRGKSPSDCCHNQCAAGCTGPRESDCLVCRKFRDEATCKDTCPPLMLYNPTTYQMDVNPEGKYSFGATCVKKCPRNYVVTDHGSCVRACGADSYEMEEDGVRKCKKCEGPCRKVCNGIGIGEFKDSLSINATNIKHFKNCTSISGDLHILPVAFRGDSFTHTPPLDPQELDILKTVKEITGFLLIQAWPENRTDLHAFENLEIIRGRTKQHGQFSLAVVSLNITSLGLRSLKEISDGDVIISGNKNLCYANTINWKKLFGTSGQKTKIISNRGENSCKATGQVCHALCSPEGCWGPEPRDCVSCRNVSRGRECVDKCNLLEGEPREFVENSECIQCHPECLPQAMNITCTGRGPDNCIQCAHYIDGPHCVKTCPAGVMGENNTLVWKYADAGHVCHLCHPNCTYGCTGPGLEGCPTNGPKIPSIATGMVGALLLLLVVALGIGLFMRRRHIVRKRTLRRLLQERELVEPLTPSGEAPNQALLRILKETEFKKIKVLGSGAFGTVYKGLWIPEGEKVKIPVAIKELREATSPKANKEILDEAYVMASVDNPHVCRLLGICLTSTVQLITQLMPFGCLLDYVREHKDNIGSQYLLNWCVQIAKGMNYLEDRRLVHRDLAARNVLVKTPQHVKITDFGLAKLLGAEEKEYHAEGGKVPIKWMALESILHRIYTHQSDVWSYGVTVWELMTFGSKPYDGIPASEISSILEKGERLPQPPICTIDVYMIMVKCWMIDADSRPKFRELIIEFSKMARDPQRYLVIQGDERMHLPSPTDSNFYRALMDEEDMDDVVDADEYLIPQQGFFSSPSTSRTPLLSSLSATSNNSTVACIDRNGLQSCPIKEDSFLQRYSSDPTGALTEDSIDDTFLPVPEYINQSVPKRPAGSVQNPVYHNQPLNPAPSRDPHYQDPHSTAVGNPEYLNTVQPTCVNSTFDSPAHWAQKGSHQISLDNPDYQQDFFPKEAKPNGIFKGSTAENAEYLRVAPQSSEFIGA

SMILES: CN(C)c1nc(-c2cccc(NC(=O)c3c(F)cccc3F)c2)c(-c2ccnc(Nc3cccc(CN4CCCC4)c3)n2)s1 [Example 39, N-{3-[2-(Dimethylamino)-5-(2-{[3-(1-pyrrolidinylmethyl)phenyl]amino}-4-pyrimidinyl)-1,3-thiazol-4-yl]phenyl}-2,6-difluorobenzamide]
- pIC50 (EGFR): > 7.00
- pIC50 (HT-29 tumor cells): 6.00 to 7.00
- pIC50 (SK-MEL-3 tumor cells): 6.00 to 7.00
- pIC50 (Colo205 tumor cells): 6.00 to 7.00
- pIC50 (A375P F11s tumor cells): 6.00 to 7.00
- pIC50 (SK-MEL-28 tumor cells): < 6.00
- pIC50 (BT474 tumor cells): > 7.00
- pIC50 (ErbB2): > 7.00
- pIC50 (HN5 tumor cells): 6.00 to 7.00

SMILES: CN(C)CCOc1cccc(Nc2nccc(-c3sc(N)nc3-c3cccc(NC(=O)c4c(F)cccc4F)c3)n2)c1 [Example 22, N-[3-(2-Amino-5-{2-[(3-{[2-(dimethylamino)ethyl]oxy}phenyl)amino]-4-pyrimidinyl}-1,3-thiazol-4-yl)phenyl]-2,6-difluorobenzamide]
- pIC50 (EGFR): > 7.00
- pIC50 (HT-29 tumor cells): 6.00 to 7.00
- pIC50 (SK-MEL-3 tumor cells): 6.00 to 7.00
- pIC50 (Colo205 tumor cells): 6.00 to 7.00
- pIC50 (A375P F11s tumor cells): 6.00 to 7.00
- pIC50 (SK-MEL-28 tumor cells): 6.00 to 7.00
- pIC50 (BT474 tumor cells): > 7.00
- pIC50 (ErbB2): > 7.00
- pIC50 (HN5 tumor cells): > 7.00

SMILES: CN(C)CCOc1ccc(Nc2nccc(-c3sc(N4CCCCC4)nc3-c3cccc(NC(=O)c4c(F)cccc4F)c3)n2)cc1Cl [Example 72, N-{3-[5-{2-[(3-Chloro-4-{[2-(dimethylamino)ethyl]oxy}phenyl)amino]-4-pyrimidinyl}-2-(1-piperidinyl)-1,3-thiazol-4-yl]phenyl}-2,6-difluorobenzamide]
- pIC50 (EGFR): > 7.00
- pIC50 (HT-29 tumor cells): 6.00 to 7.00
- pIC50 (SK-MEL-3 tumor cells): < 6.00
- pIC50 (Colo205 tumor cells): < 6.00
- pIC50 (A375P F11s tumor cells): < 6.00
- pIC50 (SK-MEL-28 tumor cells): < 6.00
- pIC50 (BT474 tumor cells): < 6.00
- pIC50 (ErbB2): > 7.00
- pIC50 (HN5 tumor cells): 6.00 to 7.00

SMILES: CN(C)CCOc1ccc(Nc2nccc(-c3sc(N)nc3-c3ccc(F)c(NC(=O)c4c(F)cccc4F)c3)n2)cc1Cl [Example 67]
- pIC50 (EGFR): > 7.00
- pIC50 (HT-29 tumor cells): 6.00 to 7.00
- pIC50 (SK-MEL-3 tumor cells): 6.00 to 7.00
- pIC50 (Colo205 tumor cells): > 7.00
- pIC50 (A375P F11s tumor cells): 6.00 to 7.00
- pIC50 (SK-MEL-28 tumor cells): 6.00 to 7.00
- pIC50 (BT474 tumor cells): > 7.00
- pIC50 (ErbB2): > 7.00
- pIC50 (HN5 tumor cells): > 7.00

SMILES: Cc1nc(-c2cccc(NC(=O)c3c(F)cccc3F)c2)c(-c2ccnc(Nc3cccc(CN4CCCC4)c3)n2)s1 [Example 104, 2,6-Difluoro-N-{3-[2-methyl-5-(2-{[3-(1-pyrrolidinylmethyl)phenyl]amino}-4-pyrimidinyl)-1,3-thiazol-4-yl]phenyl}benzamide]
- pIC50 (EGFR): > 7.00
- pIC50 (HT-29 tumor cells): 6.00 to 7.00
- pIC50 (SK-MEL-3 tumor cells): 6.00 to 7.00
- pIC50 (Colo205 tumor cells): 6.00 to 7.00
- pIC50 (A375P F11s tumor cells): 6.00 to 7.00
- pIC50 (SK-MEL-28 tumor cells): < 6.00
- pIC50 (BT474 tumor cells): > 7.00
- pIC50 (ErbB2): > 7.00
- pIC50 (HN5 tumor cells): 6.00 to 7.00

SMILES: O=C(Nc1cccc(-c2nc(NCCCN3CCOCC3)sc2-c2ccnc(Nc3cccc(CN4CCCC4)c3)n2)c1)c1c(F)cccc1F [Example 28, 2,6-Difluoro-N-{3-[2-{[3-(4-morpholinyl)propyl]amino}-5-(2-{[3-(1-pyrrolidinylmethyl)phenyl]amino}-4-pyrimidinyl)-1,3-thiazol-4-yl]phenyl}benzamide]
- pIC50 (EGFR): > 7.00
- pIC50 (HT-29 tumor cells): 6.00 to 7.00
- pIC50 (SK-MEL-3 tumor cells): 6.00 to 7.00
- pIC50 (Colo205 tumor cells): 6.00 to 7.00
- pIC50 (A375P F11s tumor cells): 6.00 to 7.00
- pIC50 (SK-MEL-28 tumor cells): 6.00 to 7.00
- pIC50 (BT474 tumor cells): > 7.00
- pIC50 (ErbB2): > 7.00
- pIC50 (HN5 tumor cells): 6.00 to 7.00

SMILES: CNc1nc(-c2cccc(NC(=O)c3c(F)cccc3F)c2)c(-c2ccnc(Nc3ccc(OCCN(C)C)c(Cl)c3)n2)s1 [Example 24, N-{3-[5-{2-[(3-Chloro-4-{[2-(dimethylamino)ethyl]oxy}phenyl)amino]-4-pyrimidinyl}-2-(methylamino)-1,3-thiazol-4-yl]phenyl}-2,6-difluorobenzamide]
- pIC50 (EGFR): > 7.00
- pIC50 (HT-29 tumor cells): 6.00 to 7.00
- pIC50 (SK-MEL-3 tumor cells): 6.00 to 7.00
- pIC50 (Colo205 tumor cells): 6.00 to 7.00
- pIC50 (A375P F11s tumor cells): 6.00 to 7.00
- pIC50 (SK-MEL-28 tumor cells): 6.00 to 7.00
- pIC50 (BT474 tumor cells): > 7.00
- pIC50 (ErbB2): > 7.00
- pIC50 (HN5 tumor cells): > 7.00

SMILES: COCCNc1nc(-c2cccc(NC(=O)c3c(F)cccc3F)c2)c(-c2ccnc(Nc3ccc(OCCN4CCCC4)c(Cl)c3)n2)s1 [Example 27, N-[3-(5-{2-[(3-Chloro-4-{[2-(1-pyrrolidinyl)ethyl]oxy}phenyl)amino]-4-pyrimidinyl}-2-{[2-(methyloxy)ethyl]amino}-1,3-thiazol-4-yl)phenyl]-2,6-difluorobenzamide]
- pIC50 (EGFR): > 7.00
- pIC50 (HT-29 tumor cells): 6.00 to 7.00
- pIC50 (SK-MEL-3 tumor cells): 6.00 to 7.00
- pIC50 (Colo205 tumor cells): 6.00 to 7.00
- pIC50 (A375P F11s tumor cells): 6.00 to 7.00
- pIC50 (SK-MEL-28 tumor cells): 6.00 to 7.00
- pIC50 (BT474 tumor cells): > 7.00
- pIC50 (ErbB2): > 7.00
- pIC50 (HN5 tumor cells): > 7.00

SMILES: CN1CCc2ccc(Nc3nccc(-c4sc(NCCCN5CCOCC5)nc4-c4cccc(NC(=O)c5c(F)cccc5F)c4)n3)cc2C1 [Example 31]
- pIC50 (EGFR): > 7.00
- pIC50 (HT-29 tumor cells): 6.00 to 7.00
- pIC50 (SK-MEL-3 tumor cells): 6.00 to 7.00
- pIC50 (Colo205 tumor cells): 6.00 to 7.00
- pIC50 (A375P F11s tumor cells): 6.00 to 7.00
- pIC50 (SK-MEL-28 tumor cells): < 6.00
- pIC50 (BT474 tumor cells): 6.00 to 7.00
- pIC50 (ErbB2): > 7.00
- pIC50 (HN5 tumor cells): > 7.00

SMILES: COc1ccc(Nc2nccc(-c3sc(N)nc3-c3cccc(NC(=O)c4c(F)cccc4F)c3)n2)cc1OCCN(C)C [Example 2]
- pIC50 (EGFR): > 7.00
- pIC50 (HT-29 tumor cells): 6.00 to 7.00
- pIC50 (SK-MEL-3 tumor cells): 6.00 to 7.00
- pIC50 (Colo205 tumor cells): > 7.00
- pIC50 (A375P F11s tumor cells): 6.00 to 7.00
- pIC50 (SK-MEL-28 tumor cells): 6.00 to 7.00
- pIC50 (BT474 tumor cells): > 7.00
- pIC50 (ErbB2): > 7.00
- pIC50 (HN5 tumor cells): > 7.00
